According to US9963442B2, “Pyridones as herbicides” (E I DU PONT DE NEMOURS AND COMPANY, priority 2014, dated 2018):

Tests used:
Format in all cases: in vivo
kochia (Kochia scoparia) = test: Test C postemergence; conditions: scale 0 to 100, 0 is no effect, 100 is complete control
Method in brief: (§1)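 Visual rating on a 0–100 scale (100 = complete control) against untreated controls, 13–15 days after treatment in the greenhouse. Test chemical was formulated in a non-phytotoxic solvent with surfactant, applied to soil (loam/sand) at planting or to foliage of 1- to 4-leaf plants.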

[1] = tested on: johnsongrass (Sorghum halepense); test: Test C postemergence; conditions: scale 0 to 100, 0 is no effect, 100 is complete control
Method in brief: as §1

[2] = tested on: giant foxtail (Setaria faberii); test: Test C postemergence; conditions: scale 0 to 100, 0 is no effect, 100 is complete control
Method in brief: as §1

[3] = tested on: waterhemp (common waterhemp, Amaranthus rudis); test: Test C postemergence; conditions: scale 0 to 100, 0 is no effect, 100 is complete control
Method in brief: as §1

wild oat (Avena fatua) = test: Test C postemergence; conditions: scale 0 to 100, 0 is no effect, 100 is complete control
Method in brief: as §1

[4] = tested on: ragweed (common ragweed, Ambrosia elatior); test: Test C postemergence; conditions: scale 0 to 100, 0 is no effect, 100 is complete control
Method in brief: as §1

[5] = tested on: lambsquarters (Chenopodium album); test: Test C postemergence; conditions: scale 0 to 100, 0 is no effect, 100 is complete control
Method in brief: as §1

[6] = tested on: velvetleaf (Abutilon theophrasti); test: Test C postemergence; conditions: scale 0 to 100, 0 is no effect, 100 is complete control
Method in brief: as §1

soybean (Glycine max) [7] = test: Test C postemergence; conditions: scale 0 to 100, 0 is no effect, 100 is complete control
Method in brief: as §1

[8] = tested on: galium (catchweed bedstraw, Galium aparine); test: Test C postemergence; conditions: scale 0 to 100, 0 is no effect, 100 is complete control
Method in brief: as §1

[9] = tested on: large (Lg) crabgrass (Digitaria sanguinalis); test: Test C postemergence; conditions: scale 0 to 100, 0 is no effect, 100 is complete control
Method in brief: as §1

[10] = tested on: winter wheat (Triticum aestivum); test: Test C postemergence; conditions: scale 0 to 100, 0 is no effect, 100 is complete control
Method in brief: as §1

[11] = tested on: Italian ryegrass (Lolium multiflorum); test: Test C postemergence; conditions: scale 0 to 100, 0 is no effect, 100 is complete control
Method in brief: as §1

[12] = tested on: yellow nutsedge (Cyperus esculentus); test: Test C preemergence; conditions: scale 0 to 100, 0 is no effect, 100 is complete control
Method in brief: as §1

[13] = tested on: johnsongrass (Sorghum halepense); test: Test C preemergence; conditions: scale 0 to 100, 0 is no effect, 100 is complete control
Method in brief: as §1

[14] = tested on: giant foxtail (Setaria faberii); test: Test C preemergence; conditions: scale 0 to 100, 0 is no effect, 100 is complete control
Method in brief: as §1

[15] = tested on: waterhemp (common waterhemp, Amaranthus rudis); test: Test C preemergence; conditions: scale 0 to 100, 0 is no effect, 100 is complete control
Method in brief: as §1

[16] = tested on: ragweed (common ragweed, Ambrosia elatior); test: Test C preemergence; conditions: scale 0 to 100, 0 is no effect, 100 is complete control
Method in brief: as §1

[17] = tested on: lambsquarters (Chenopodium album); test: Test C preemergence; conditions: scale 0 to 100, 0 is no effect, 100 is complete control
Method in brief: as §1

[18] = tested on: velvetleaf (Abutilon theophrasti); test: Test C preemergence; conditions: scale 0 to 100, 0 is no effect, 100 is complete control
Method in brief: as §1

soybean (Glycine max) [19] = test: Test C preemergence; conditions: 31 g ai/ha, scale 0 to 100, 0 is no effect, 100 is complete control
Method in brief: as §1

[20] = tested on: Italian ryegrass (Lolium multiflorum); test: Test C preemergence; conditions: scale 0 to 100, 0 is no effect, 100 is complete control
Method in brief: as §1

[21] = tested on: pigweed (Amaranthus retroflexus); test: Test C preemergence; conditions: scale 0 to 100, 0 is no effect, 100 is complete control
Method in brief: as §1

O=c1cccc(Oc2ncc(Cl)cn2)n1-c1ccc(C(F)(F)F)cc1 [Compound 10]
Plant response rating, Kochia (kochia (Kochia scoparia); 16 g ai/ha): 85
Plant response rating, Kochia (kochia (Kochia scoparia); 31 g ai/ha): 90
Plant response rating, Kochia (kochia (Kochia scoparia); 62 g ai/ha): 90
Plant response rating, Kochia (kochia (Kochia scoparia); 125 g ai/ha): 95
Plant response rating, Johnsongrass ([1]; 16 g ai/ha): 5
Plant response rating, Johnsongrass ([1]; 31 g ai/ha): 10
Plant response rating, Johnsongrass ([1]; 62 g ai/ha): 10
Plant response rating, Johnsongrass ([1]; 125 g ai/ha): 25
Plant response rating, Foxtail, Giant ([2]; 16 g ai/ha): 10
Plant response rating, Foxtail, Giant ([2]; 31 g ai/ha): 15
Plant response rating, Foxtail, Giant ([2]; 62 g ai/ha): 10
Plant response rating, Foxtail, Giant ([2]; 125 g ai/ha): 20
Plant response rating, Waterhemp ([3]; 16 g ai/ha): 75
Plant response rating, Waterhemp ([3]; 31 g ai/ha): 80
Plant response rating, Waterhemp ([3]; 62 g ai/ha): 98
Plant response rating, Waterhemp ([3]; 125 g ai/ha): 98
Plant response rating, Oat, Wild (wild oat (Avena fatua); 16 g ai/ha): 0
Plant response rating, Oat, Wild (wild oat (Avena fatua); 31 g ai/ha): 5
Plant response rating, Oat, Wild (wild oat (Avena fatua); 62 g ai/ha): 15
Plant response rating, Oat, Wild (wild oat (Avena fatua); 125 g ai/ha): 25
Plant response rating, Ragweed ([4]; 16 g ai/ha): 25
Plant response rating, Ragweed ([4]; 31 g ai/ha): 25
Plant response rating, Ragweed ([4]; 62 g ai/ha): 60
Plant response rating, Ragweed ([4]; 125 g ai/ha): 65
Plant response rating, Lambsquarters ([5]; 16 g ai/ha): 65
Plant response rating, Lambsquarters ([5]; 31 g ai/ha): 75
Plant response rating, Lambsquarters ([5]; 62 g ai/ha): 75
Plant response rating, Lambsquarters ([5]; 125 g ai/ha): 90
Plant response rating, Velvetleaf ([6]; 16 g ai/ha): 15
Plant response rating, Velvetleaf ([6]; 31 g ai/ha): 35
Plant response rating, Velvetleaf ([6]; 62 g ai/ha): 60
Plant response rating, Velvetleaf ([6]; 125 g ai/ha): 65
Plant response rating, Soybean (soybean (Glycine max) [7]; 16 g ai/ha): 40
Plant response rating, Soybean (soybean (Glycine max) [7]; 31 g ai/ha): 40
Plant response rating, Soybean (soybean (Glycine max) [7]; 62 g ai/ha): 65
Plant response rating, Soybean (soybean (Glycine max) [7]; 125 g ai/ha): 55
Plant response rating, Galium ([8]; 16 g ai/ha): 45
Plant response rating, Galium ([8]; 31 g ai/ha): 50
Plant response rating, Galium ([8]; 62 g ai/ha): 75
Plant response rating, Galium ([8]; 125 g ai/ha): 80
Plant response rating, Crabgrass, Large ([9]; 16 g ai/ha): 25
Plant response rating, Crabgrass, Large ([9]; 31 g ai/ha): 35
Plant response rating, Crabgrass, Large ([9]; 62 g ai/ha): 60
Plant response rating, Crabgrass, Large ([9]; 125 g ai/ha): 80
Plant response rating, Wheat ([10]; 16 g ai/ha): 0
Plant response rating, Wheat ([10]; 31 g ai/ha): 5
Plant response rating, Wheat ([10]; 62 g ai/ha): 10
Plant response rating, Wheat ([10]; 125 g ai/ha): 10
Plant response rating, Ryegrass, Italian ([11]; 16 g ai/ha): 5
Plant response rating, Ryegrass, Italian ([11]; 31 g ai/ha): 5
Plant response rating, Ryegrass, Italian ([11]; 62 g ai/ha): 10
Plant response rating, Ryegrass, Italian ([11]; 125 g ai/ha): 20
Plant response rating, Nutsedge, Yellow ([12]; 16 g ai/ha): 0
Plant response rating, Nutsedge, Yellow ([12]; 31 g ai/ha): 0
Plant response rating, Nutsedge, Yellow ([12]; 62 g ai/ha): 0
Plant response rating, Nutsedge, Yellow ([12]; 125 g ai/ha): 0
Plant response rating, Johnsongrass ([13]; 16 g ai/ha): 0
Plant response rating, Johnsongrass ([13]; 31 g ai/ha): 5
Plant response rating, Johnsongrass ([13]; 62 g ai/ha): 35
Plant response rating, Johnsongrass ([13]; 125 g ai/ha): 70
Plant response rating, Foxtail, Giant ([14]; 16 g ai/ha): 55
Plant response rating, Foxtail, Giant ([14]; 31 g ai/ha): 90
Plant response rating, Foxtail, Giant ([14]; 62 g ai/ha): 100
Plant response rating, Foxtail, Giant ([14]; 125 g ai/ha): 100
Plant response rating, Waterhemp ([15]; 16 g ai/ha): 70
Plant response rating, Waterhemp ([15]; 31 g ai/ha): 95
Plant response rating, Waterhemp ([15]; 62 g ai/ha): 100
Plant response rating, Waterhemp ([15]; 125 g ai/ha): 100
Plant response rating, Ragweed ([16]; 16 g ai/ha): 35
Plant response rating, Ragweed ([16]; 31 g ai/ha): 25
Plant response rating, Ragweed ([16]; 62 g ai/ha): 25
Plant response rating, Ragweed ([16]; 125 g ai/ha): 65
Plant response rating, Lambsquarters ([17]; 16 g ai/ha): 35
Plant response rating, Lambsquarters ([17]; 31 g ai/ha): 25
Plant response rating, Lambsquarters ([17]; 62 g ai/ha): 35
Plant response rating, Lambsquarters ([17]; 125 g ai/ha): 75
Plant response rating, Velvetleaf ([18]; 16 g ai/ha): 0
Plant response rating, Velvetleaf ([18]; 31 g ai/ha): 20
Plant response rating, Velvetleaf ([18]; 62 g ai/ha): 40
Plant response rating, Velvetleaf ([18]; 125 g ai/ha): 55
Plant response rating, Soybean (soybean (Glycine max) [19]): 20
Plant response rating, Ryegrass, Italian ([20]; 16 g ai/ha): 0
Plant response rating, Ryegrass, Italian ([20]; 31 g ai/ha): 10
Plant response rating, Ryegrass, Italian ([20]; 62 g ai/ha): 90
Plant response rating, Ryegrass, Italian ([20]; 125 g ai/ha): 85
Plant response rating, Pigweed ([21]; 16 g ai/ha): 55
Plant response rating, Pigweed ([21]; 31 g ai/ha): 65
Plant response rating, Pigweed ([21]; 62 g ai/ha): 100
Plant response rating, Pigweed ([21]; 125 g ai/ha): 100
